Test results: patent US12024707B2, “Methods and compositions for modulating lncRNAs and methods of treatment based on lncRNA expression” (Washington University, priority 2020, dated 2024)
Structures can show the parent of a compound that is named as a salt.

Test system: HT29 RAMS11 overexpressing cells
Test: High-throughput viability assay (resazurin), 119 FDA-approved anticancer drugs, RAMS11 overexpressing cells (Clone1, Clone2)
Settings: 72 h, vs empty vector control
[1] = OE1 (RAMS11 overexpression clone 1), 0.1 uM drug
[2] = OE1 (RAMS11 overexpression clone 1), 1 uM drug
[3] = OE1 (RAMS11 overexpression clone 1), 10 uM drug
[4] = OE2 (RAMS11 overexpression clone 2), 0.1 uM drug
[5] = OE2 (RAMS11 overexpression clone 2), 1 uM drug
[6] = OE2 (RAMS11 overexpression clone 2), 10 uM drug

Experimental: The FDA-approved anticancer panel included multiple classes of drugs such as kinase inhibitors, alkylating agents, antineoplastic antibiotics, anthracycline antibiotics, and antineoplastic agents (topoisomerase inhibitors). The HT29 RAMS11 overexpressing and control cells were treated for 72 h to assess cellular viability upon drug treatment (FIG. 14a and TABLE 3). […] Due to 5-FU commonly used to treat mCRC, we further determined if RAMS11 expression altered drug sensitivity in treated cells.
Drugs were diluted in DMSO to 1 mM and the well assignments were rearranged so drugs were confined to the inner 60 wells of 96-well plates. […] The next day serial diluted drug was added to pre-seeded plates in media containing 1% DMSO vehicle, using a Robbins Hydra 96 micro dispenser. Two 96-well plates of cells were used as vehicle controls. The plates were incubated for 3 days. Percent viability was scored by incubating cells for 3 h with resazurin sodium (0.023 mg/mL, Sigma R7017). The reaction was stopped by the addition of SDS (1% final concentration). Fluorescence Ex/Em 540/590 was read in a Biotek Synergy H1 plate reader (Winooski, VT). The fluorescence values for the vehicle plates were averaged and percent viability was determined by the formula: Percent viability=(average vehicle−value)/(average vehicle−average resazurin in media blank)×100. […] Assays were repeated more than three times.

SMILES	Viability Fold Change [1]	Viability Fold Change [2]	Viability Fold Change [3]	Viability Fold Change [4]	Viability Fold Change [5]	Viability Fold Change [6]
C[C@]12CC[C@H](O)CC1=CC[C@@H]1[C@@H]2CC[C@]2(C)C(c3cccnc3)=CC[C@@H]12 [Abiraterone]	0.9503	0.9997	1.001	1.008	1.043	0.9879
CN(C)C/C=C/C(=O)Nc1cc2c(Nc3ccc(F)c(Cl)c3)ncnc2cc1O[C@H]1CCOC1 [Afatinib]	1.034	1.121	1.39	1.147	1.156	1.398
Oc1ncnc2[nH]ncc12 [Allopurinol]	0.8682	0.9042	0.776	0.9002	0.8635	0.8648
CN(C)c1nc(N(C)C)nc(N(C)C)n1 [Altretamine]	0.949	0.9105	0.845	0.9299	0.9672	0.9171
NCCCNCCSP(=O)(O)O [Amifostine]	0.9539	1.024	1.063	0.99	1.063	1.167
NCC(=O)CCC(=O)O [Aminolevulinic Acid]	0.8803	0.9655	1.022	0.914	1.058	0.9613
CC(C)(C#N)c1cc(Cn2cncn2)cc(C(C)(C)C#N)c1 [Anastrozole]	0.876	0.9957	0.9385	0.9749	1.001	0.9255
CNC(=O)c1ccccc1Sc1ccc2c(/C=C/c3ccccn3)n[nH]c2c1 [Axitinib]	0.9514	0.9382	0.8636	0.911	1.101	0.8143
Nc1ncn([C@@H]2O[C@H](CO)[C@@H](O)[C@H]2O)c(=O)n1 [Azacitidine]	1.05	1.098	0.9367	1.089	1.054	0.9049
O=C(/C=C/c1cccc(S(=O)(=O)Nc2ccccc2)c1)NO [Belinostat]	0.9138	1.209	1.035	1.073	1.192	1.006
Cn1c(CCCC(=O)O)nc2cc(N(CCCl)CCCl)ccc21 [Bendamustine hydrochloride]	0.8888	0.9725	0.935	1.01	0.9036	0.899
CC(C)C[C@H](NC(=O)[C@H](Cc1ccccc1)NC(=O)c1cnccn1)B(O)O [Bortezomib]	0.6015	1.059	1.152	0.5035	0.8063	0.9968
COc1cc(Nc2c(C#N)cnc3cc(OCCCN4CCN(C)CC4)c(OC)cc23)c(Cl)cc1Cl [Bosutinib]	1.048	1.013	1.477	1.022	1.04	1.608
